# Measurements published in patent publication US5972955A, “Water soluble C-ring analogues of 20(S)-camptothecin” (Dr. Reddy's Research Foundation, priority 1996, dated 1999).
# Entries after “also recorded” stand apart in the source; their conditions may differ.
# Tests used:
# [1] = test system: NCI's 60 human tumor cell line assay; test: NCI 60 human tumor cell line assay, mean growth inhibition (Table 1); assay type: cell-based; conditions: read-out: IC50 = the mean value of the minimum drug concentration of the agent required to produce 50% cell growth inhibition (GI50); mean over NCI's 60 human tumor cell lines; 48 h; Sulforhodamine B
# Experimental: (§1) Inoculates were allowed a preincubation period of 24 h at 37° C. for stabilization.
# ^a IC50 = the mean value of the minimum drug concentration (μm) of
# NCI's 60 human tumor cell line assay.
# [2] = cited from earlier work
# topoisomerase I = conditions: cited from earlier work
# [3] = in vivo; cited from earlier work
# Human Serum Albumin = conditions: in the presence of HSA at 37° C.; cited from earlier work
# MOLT-4 = test: NCI in vitro growth inhibition, leukemia MOLT-4; assay type: cell-based; conditions: Homo sapiens, read-out: 50% Growth Inhibition (GI 50); MOLT-4, leukemia; 48 h
# Experimental: as §1
# HL 60 = test: NCI in vitro growth inhibition, leukemia HL 60; assay type: cell-based; conditions: Homo sapiens, read-out: 50% Growth Inhibition (GI 50); HL 60, leukemia; 48 h
# Experimental: as §1
# SR = test: NCI in vitro growth inhibition, leukemia SR; assay type: cell-based; conditions: Homo sapiens, read-out: 50% Growth Inhibition (GI 50), 48 h
# Experimental: as §1
# H 460 = test: NCI in vitro growth inhibition, NSLC H 460; assay type: cell-based; conditions: Homo sapiens, NCI-H460, read-out: 50% Growth Inhibition (GI 50); H 460, NSLC; 48 h
# Experimental: as §1
# HOP 62 = test: NCI in vitro growth inhibition, NSLC HOP 62; assay type: cell-based; conditions: Homo sapiens, read-out: 50% Growth Inhibition (GI 50); HOP 62, NSLC; 48 h
# Experimental: as §1
# H 522 = test: NCI in vitro growth inhibition, NSLC H 522; assay type: cell-based; conditions: Homo sapiens, NCI-H522, read-out: 50% Growth Inhibition (GI 50); H 522, NSLC; 48 h
# Experimental: as §1
# H 23 = test: NCI in vitro growth inhibition, NSLC H 23; assay type: cell-based; conditions: Homo sapiens, NCI-H23, read-out: 50% Growth Inhibition (GI 50); H 23, NSLC; 48 h
# Experimental: as §1
# SF-539 = test: NCI in vitro growth inhibition, CNS SF-539; assay type: cell-based; conditions: Homo sapiens, read-out: 50% Growth Inhibition (GI 50); SF-539, CNS; 48 h
# Experimental: as §1
# SF 295 = test: NCI in vitro growth inhibition, CNS SF 295; assay type: cell-based; conditions: Homo sapiens, read-out: 50% Growth Inhibition (GI 50); SF 295, CNS; 48 h
# Experimental: as §1
# 786-O = test: NCI in vitro growth inhibition, renal 786-O; assay type: cell-based; conditions: Homo sapiens, 786-0, read-out: 50% Growth Inhibition (GI 50), 48 h
# Experimental: as §1
# ACHN = test: NCI in vitro growth inhibition, renal ACHN; assay type: cell-based; conditions: Homo sapiens, read-out: 50% Growth Inhibition (GI 50), 48 h
# Experimental: as §1
# LOX IMVI = test: NCI in vitro growth inhibition, melanoma LOX IMVI; assay type: cell-based; conditions: Homo sapiens, read-out: 50% Growth Inhibition (GI 50), 48 h
# Experimental: as §1
# UACC 62 = test: NCI in vitro growth inhibition, melanoma UACC 62; assay type: cell-based; conditions: Homo sapiens, read-out: 50% Growth Inhibition (GI 50); UACC 62, melanoma; 48 h
# Experimental: as §1
# M-14 = test: NCI in vitro growth inhibition, melanoma M-14; assay type: cell-based; conditions: Homo sapiens, M14, read-out: 50% Growth Inhibition (GI 50); M-14, melanoma; 48 h
# Experimental: as §1
# SK MEL-5 = test: NCI in vitro growth inhibition, melanoma SK MEL-5; assay type: cell-based; conditions: Homo sapiens, read-out: 50% Growth Inhibition (GI 50); SK MEL-5, melanoma; 48 h
# Experimental: as §1
# MCF-7 = test: NCI in vitro growth inhibition, breast MCF-7; assay type: cell-based; conditions: Homo sapiens, MCF7, read-out: 50% Growth Inhibition (GI 50); MCF-7, breast; 48 h
# Experimental: as §1
# MCF7/ADR = test: NCI in vitro growth inhibition, breast MCF7/ADR; assay type: cell-based; conditions: Homo sapiens, NCI/ADR-RES, read-out: 50% Growth Inhibition (GI 50), 48 h
# Experimental: as §1
# T 47D = test: NCI in vitro growth inhibition, breast T 47D; assay type: cell-based; conditions: Homo sapiens, T47D, read-out: 50% Growth Inhibition (GI 50), 48 h
# Experimental: as §1
# SF-268 = test: NCI in vitro growth inhibition, CNS SF-268; assay type: cell-based; conditions: Homo sapiens, SF-268, 48 h, read-out: 50% Growth Inhibition (GI 50)
# Experimental: as §1
# CAKI-1 = test: NCI in vitro growth inhibition, renal CAKI-1; assay type: cell-based; conditions: Homo sapiens, read-out: 50% Growth Inhibition (GI 50); CAKI-1, renal; 48 h
# Experimental: as §1
# CCRF-CEM = test: NCI in vitro growth inhibition, leukemia CCRF-CEM; assay type: cell-based; conditions: Homo sapiens, read-out: 50% Growth Inhibition (GI 50), 48 h
# Experimental: as §1
# [4] = compared with 20(RS)-camptothecin; cited from earlier work
smiles,measurement,setting,value
"CCN(CC)CCNC1c2cc3c(OC)cccc3nc2-c2cc3c(c(=O)n21)COC(=O)[C@]3(O)CC (stereo partly shown) [9-Methoxy-5-(N,N-diethylethylenediamino) CPT]",IC50,[1],19.1 µM
"CCN(CC)CCCNC1c2cc3c(OC)cccc3nc2-c2cc3c(c(=O)n21)COC(=O)C3(O)CC (stereo not shown) [9-Methoxy-5-(N,N-diethylpropylenediamino) CPT]",IC50,[1],8.31 µM
CC[C@@]1(O)C(=O)OCc2c1cc1n(c2=O)C(NCCN2CCOCC2)c2cc3c(OC)cccc3nc2-1 (stereo partly shown) [9-Methoxy-5-morphilinoethylamino CPT],IC50,[1],> 30 µM
CC[C@@]1(O)C(=O)OCc2c1cc1n(c2=O)C(NCCN2CCCCC2)c2cc3c(OC)cccc3nc2-1 (stereo partly shown) [9-Methoxy-5-piperidinoethylamino CPT],IC50,[1],28.1 µM
CC[C@@]1(O)C(=O)OCc2c1cc1n(c2=O)C(NCCN2CCCC2)c2cc3c(OC)cccc3nc2-1 (stereo partly shown) [9-Methoxy-5-pyrrolidinoethylamino CPT],IC50,[1],31.6 µM
CC[C@@]1(O)C(=O)OCc2c1cc1n(c2=O)Cc2cc3ccccc3nc2-1 [20(S)-Camptothecin],water solubility (in words),[2],low water solubility
same,inhibition of topoisomerase I (in words),topoisomerase I,inhibitor of topoisomerise I
same,side effects / toxicity (in words),[3],unacceptable side effects on humans; also recorded: high toxicity problems
CCc1c2c(nc3ccc(OC(=O)N4CCC(N5CCCCC5)CC4)cc13)-c1cc3c(c(=O)n1C2)COC(=O)[C@]3(O)CC [CPT-11],percentage (%) of lactone form at equilibrium (in words),Human Serum Albumin,a higher percentage (%) of lactone form at equilibrium than 20(S) camptothecin of the formula 2 and 9-aminocamptothecin of the formula 5
"CC[C@@]1(O)C(=O)OCc2c1cc1n(c2=O)C(NO)c2cc3ccccc3nc2-1 (stereo partly shown) [Example 1, 5-Hydroxylaminocamptothecin]",IC50,[1],2.39 µM
same,GI50,MOLT-4,0.18 µM
same,GI50,HL 60,0.38 µM
same,GI50,SR,0.53 µM
same,GI50,H 460,0.48 µM
same,GI50,HOP 62,0.38 µM
same,GI50,H 522,0.2 µM
same,GI50,H 23,1.62 µM
same,GI50,SF-539,1.2 µM
same,GI50,SF 295,0.25 µM
same,GI50,786-O,0.56 µM
same,GI50,ACHN,0.4 µM
same,GI50,LOX IMVI,3.38 µM
same,GI50,UACC 62,0.37 µM
same,GI50,M-14,0.37 µM
same,GI50,SK MEL-5,3.38 µM
same,GI50,MCF-7,0.34 µM
same,GI50,MCF7/ADR,2.18 µM
same,GI50,T 47D,0.2 µM
"CC[C@@]1(O)C(=O)OCc2c1cc1n(c2=O)C(NCCO)c2cc3ccccc3nc2-1 (stereo partly shown) [Example 2, 5-(2'-hydroxyethylamino)camptothecin]",IC50,[1],> 30 µM
"CC[C@@]1(O)C(=O)OCc2c1cc1n(c2=O)C(NCCN(C)C)c2cc3ccccc3nc2-1 (stereo partly shown) [Example 4, 5-(N,N-Dimethylethylenediamino)camptothecin]",IC50,[1],> 30 µM
"CC[C@@]1(O)C(=O)OCc2c1cc1n(c2=O)C(NCc2ccccc2)c2cc3ccccc3nc2-1 (stereo partly shown) [Example 5, 5-Benzylaminocamptothecin]",IC50,[1],> 30 µM
"CC[C@@]1(O)C(=O)OCc2c1cc1n(c2=O)C(NCCCl)c2cc3ccccc3nc2-1 (stereo partly shown) [Example 6, 5-(2'-chloroethylamino)camptothecin]",IC50,[1],19 µM
"CC[C@@]1(O)C(=O)OCc2c1cc1n(c2=O)C(NCCN(C)C)c2cc3c(OC)cccc3nc2-1 (stereo partly shown) [Example 7, 5-(N,N-Dimethylethylenediamino)-9-methoxycamptothecin]",IC50,[1],9.54 µM
CC[C@@]1(O)C(=O)OCc2c1cc1n(c2=O)C(NCC(O)CO)c2cc3c(OC)cccc3nc2-1 (stereo partly shown) [Example 9],IC50,[1],6.6 µM
"CC[C@@]1(O)C(=O)OCc2c1cc1n(c2=O)C(NCCCCO)c2cc3c(OC)cccc3nc2-1 (stereo partly shown) [Example 10, 5-(4'-hydroxybutylamino)-9-methoxycamptothecin]",IC50,[1],13.1 µM
"CC[C@@]1(O)C(=O)OCc2c1cc1n(c2=O)C(NO)c2cc3cc(O)ccc3nc2-1 (stereo partly shown) [Example 11, 10-Hydroxy-5-hydroxylaminocamptothecin]",IC50,[1],10 µM
same,GI50,MOLT-4,0.01 µM
same,GI50,HL 60,1.86 µM
same,GI50,SR,0.1 µM
same,GI50,H 460,1.54 µM
same,GI50,HOP 62,7.41 µM
same,GI50,H 522,5.37 µM
same,GI50,H 23,4.16 µM
same,GI50,SF-268,2.45 µM
same,GI50,SF-539,3.16 µM
same,GI50,SF 295,4.89 µM
same,GI50,786-O,2.69 µM
same,GI50,ACHN,3.16 µM
same,GI50,CAKI-1,4.26 µM
same,GI50,LOX IMVI,2.69 µM
same,GI50,UACC 62,4.16 µM
same,GI50,M-14,4.26 µM
same,GI50,SK MEL-5,15 µM
same,GI50,MCF-7,4.07 µM
same,GI50,MCF7/ADR,> 30 µM
same,GI50,T 47D,1.28 µM
"CC[C@@]1(O)C(=O)OCc2c1cc1n(c2=O)C(NC)c2cc3ccccc3nc2-1 (stereo partly shown) [Example 12, 5-Methylaminocamptothecin]",IC50,[1],4.67 µM
same,GI50,CCRF-CEM,0.23 µM
same,GI50,MOLT-4,0.15 µM
same,GI50,HL 60,0.22 µM
same,GI50,SR,0.03 µM
same,GI50,HOP 62,1.73 µM
same,GI50,H 522,2.88 µM
same,GI50,H 23,2.57 µM
same,GI50,SF-268,0.85 µM
same,GI50,SF-539,1.81 µM
same,GI50,SF 295,1.12 µM
same,GI50,786-O,4.07 µM
same,GI50,ACHN,0.97 µM
same,GI50,CAKI-1,2.29 µM
same,GI50,LOX IMVI,2.34 µM
same,GI50,M-14,2.18 µM
same,GI50,SK MEL-5,2.51 µM
same,GI50,MCF-7,1.25 µM
same,GI50,MCF7/ADR,1.94 µM
same,GI50,T 47D,4.67 µM
"CC[C@@]1(O)C(=O)OCc2c1cc1n(c2=O)C(NCCN2CCCC2)c2cc3ccccc3nc2-1 (stereo partly shown) [Example 15, 5-(Pyrrolidinoethylamino)camptothecin]",IC50,[1],> 30 µM
"CC[C@@]1(O)C(=O)OCc2c1cc1n(c2=O)C(NCCN2CCCCC2)c2cc3ccccc3nc2-1 (stereo partly shown) [Example 16, 5-(Piperidinoethylamino)camptothecin]",IC50,[1],23.4 µM
"CCc1c2c(nc3ccc(O)cc13)-c1cc3c(c(=O)n1C2)COC(=O)[C@]3(O)CC [SN-38, 7-ethyl-10-hydroxycamptothecin]",percentage (%) of lactone form at equilibrium (in words),Human Serum Albumin,a higher percentage (%) of lactone form at equilibrium than 20(S) camptothecin of the formula 2 and 9-aminocamptothecin of the formula 5
CC[C@@]1(O)C(=O)OCc2c1cc1n(c2=O)Cc2cc3c(CN(C)C)c(O)ccc3nc2-1 [Topotecan],percentage (%) of lactone form at equilibrium (in words),Human Serum Albumin,a higher percentage (%) of lactone form at equilibrium than 20(S) camptothecin of the formula 2 and 9-aminocamptothecin of the formula 5
CCc1c2c(nc3ccc(OC)cc13)-c1cc3c(c(=O)n1C2)COC(=O)[C@]3(N)CC [formula 6],in vivo antitumor activity (in words),[4],increased in vivo antitumor activity than 20(RS)-camptothecin
C=C1C(=O)OCc2c1cc1n(c2=O)Cc2c-1nc1ccc(O)cc1c2CC [formula 8],inhibition of topoisomerase I (in words),topoisomerase I,potent camptothecin like inhibition of topoisomerase I activity
